A short description of series [1]: Peptide self-assembly (critical aggregation concentration) by static light scattering. In kind it is physicochemical. To be noted: light scattering in PBS. How it is done: Peptide self-assembly was determined by static light scattering measurements as described. Hemolysis was determined by measuring hemoglobin leakage from washed human RBCs, as described. Minimal inhibitory concentration (MIC) was determined using the microdilution assay, as described. Bactericidal kinetics were determined by mixing bacteria with rifampin, OAC, or their combinations, as described. Data were obtained from three independent assays performed in duplicate.

In series [2] the test system is E. coli 25922. The series can be described thus: Dissipation of the transmembrane potential, DiSC3(5). Format: cell-based, Escherichia coli. The settings on record: 10 μM, compared to positive control 50 µM C12K-7α8. How it is done:
Inner Membrane Damages: Damage inflicted to the cytoplasmic membrane was assessed using 3,3-dipropylthiadicarbocyanine iodide (DiSC3(5)), a lipophilic potentiometric dye that changes its fluorescence intensity in response to changes in transmembrane potential. Bacteria were grown overnight, diluted and at mid-log were adjusted to O.D = 0.1 (600 nm), centrifuged (10,000 RCF, 5 min), and re-suspended in the assay buffer (5 mM HEPES containing 20 mM glucose, 0.2 mM EDTA, and 50 mM KCl). Then, DiSC3(5) dye was added (to final concentration 4 μM) and incubated at 37 °C for 60 min in the dark to allow dye uptake. An aliquot (180 μL) of the bacterial suspension was placed in a 96-well plate and fluorescence was monitored until baseline stabilization (excitation, 622 nm; emission, 670 nm, monitored using Synergy HT, BioTek Instruments, Winooski, VT, USA). […] Fluorescence was immediately monitored continuously for 30 min. […]
Figure 7 Evidence for proton and ATP leakage across the inner membrane. (a) Dissipation of the transmembrane potential in E. coli 25922 (8.8 ± 1.8 × 10^7 CFU/mL) pre-incubated with DiSC3(5) as determined 15 min after exposure to C14OOc12O (orange) or to C14(ω5)OOc10O (green). […] (b) Intracellular ATP concentrations were determined after 1 h incubation with C14(ω5)OOc10O (green) or C14OOc12O (orange) using E. coli 25922 at 5 × 10^7 CFU/mL. RLU, relative luminescence units.

A short description of series [3]: Blood circulating concentrations (preliminary PK). In kind it is in vivo, mouse. The settings on record: ICR mice, single S.C 12.5 mg/kg, LC-MS. How it is done: C14(ω5)OOc10O was subjected to preliminary pharmacokinetics (PK) analysis to determine its plasma concentrations or organ bio-distribution following S.C administration to non-neutropenic pathogen-free mice. OAC quantification was performed by LC-MS as follows: blood was drawn at various time intervals and plasma was separated by centrifugation (5000 RCF, 10 min). Organs were excised and homogenized. Then, OAC was extracted from both plasma and organ homogenates by incubation with 50% acetonitrile: 50% methanol at room temperature with shaking for 30 min, and subsequent centrifugation (5000 RCF, 10 min). Supernatants were diluted two-fold in distilled water and analyzed by LC-MS (ULC ultimate 3000 DIONEX, MS BRUKER Maxis impact). Quantification was based on standard calibration curves, prepared by spiking fresh mice plasma (for PK) or water (for organ bio-distribution) with various amounts of the tested OAC (final concentrations from 2.5 to 50 µg/mL) and subjected to an identical procedure as described above.
Figure 10 Systemic efficacy studies using mouse infection models. (a,b) Data points represent colony forming unit (CFU) counts harvested from infected mice (8 and 10 mice per group, respectively). Panel (a) depicts results of the thigh infection model where mice were inoculated intramuscularly with E. coli 25922 (upper dashed line represents the inoculum) and treated subcutaneously with C14(ω5)OOc10O (12.5 mg/kg) at 1 and 3 h post-infection. Panel (b) depicts results of the urinary tract infection model where mice were infected with E. coli UPEC CFT073 by intra-urethral injection and treated subcutaneously with C14(ω5)OOc10O (12.5 mg/kg) at 1 and 6 h post-infection. Solid circles denote mice that died before the experimental endpoint. […] Panels (c,d) show the evolution of C14(ω5)OOc10O concentrations in mouse plasma (c) or in organs (d) after single subcutaneous administration (12.5 mg/kg) to ICR mice (data in c are from two mice/time points except for 60 and 180 that were 8 and 3, respectively) as determined by liquid chromatography–mass spectrometry. […]

Series [4] relates to E. coli 25922. In kind it is cell-based, Escherichia coli. The settings on record: 25922, 24 h. The protocol:
Sensitization to plasma components was assessed by mixing bacteria with serial two-fold OAC dilutions in 80% human plasma (Israel Blood Bank) or plasma from the specified species (Technion preclinical research authority or VetSource), as described. Data were obtained from three independent experiments.
Figure 3 Animal plasma antibacterial activities against E. coli 25922. (a) Dose-dependent reduction of colony forming units (CFU) as determined 24 h after exposure to C14(ω5)OOc10O in human plasma (80% final plasma concentration in PBS). Values represent the mean ± SD obtained from three individual plasma donors (mean inoculum was 1.6 ± 0.8 × 10^6 CFU/mL). (b) Time-kill kinetics determined upon E. coli exposure to 0, 2.5, 5, and 10 µM C14(ω5)OOc10O (from top to bottom, respectively). Values represent the mean ± SD obtained from two individual plasma samples, each subjected to two independent assays. Panels (c–f), respectively, show the OAC’s concentration-dependent activities in plasma samples obtained from pig, cat, sheep, and dog. The three dashed horizontal lines respectively represent the average CFU count of the vehicle control (upper line), the inoculum (middle line), and the limit of detection (lower line), i.e., log10 50 CFU/mL = 1.69. Green stars (*) denote lack of detectable CFU.

Some results are limits rather than exact numbers.

As to `CCCCC=CCCCCCCCC(=O)N[C@@H](CCCN)C(=O)N[C@@H](CCCN)C(=O)NCCCCCCCCCC(=O)N[C@@H](CCCN)C(N)=O` [C14(ω5)OOc10O], the “CAC, critical aggregation concentration” value in series [1] was above 100 µM. The “Depolarization (dissipation of the transmembrane potential)” value with E. coli 25922 [2] is given as “only partial depolarization”. Besides, the “Time for which potentiating plasma concentrations (>2.5 µM) were maintained after the maximum” value in series [3] is “at least 3 h”. In addition, the Cmax in series [3] (mouse, plasma, sc, mean ± SD, read-out: Maximal plasma concentration) was found to be 8.7 ± 2.3 µM. Moreover, the Tmax in series [3] (mouse, plasma, sc, read-out: Time to maximal plasma concentration) was around 1 h. In the series on E. coli 25922 [4], the “MIC, cat plasma” value is given as at least 20 µM; the “MIC, dog plasma” value is recorded as at least 20 µM; the “MIC, human plasma” value was in the range of 2.5 to 5 µM.

(Values after article PMC8621570, “Mechanistic Studies of Antibiotic Adjuvants Reducing Kidney’s Bacterial Loads upon Systemic Monotherapy” (Pharmaceutics, 2021).)
